The test system of data set [1] is HT-22. In words: Cytotoxicity against mouse HT-22 cells assessed as cell viability at 20 uM incubated for 24 hrs by CCK-8 method. The class given is functional, cell-based. Background: Tetrazolium dyes change colour on reduction, which living cells bring about.
Data set [2] has as its target T1, Myeloperoxidase (Homo sapiens) (UniProt P05164).
T1 sequence (whole entry): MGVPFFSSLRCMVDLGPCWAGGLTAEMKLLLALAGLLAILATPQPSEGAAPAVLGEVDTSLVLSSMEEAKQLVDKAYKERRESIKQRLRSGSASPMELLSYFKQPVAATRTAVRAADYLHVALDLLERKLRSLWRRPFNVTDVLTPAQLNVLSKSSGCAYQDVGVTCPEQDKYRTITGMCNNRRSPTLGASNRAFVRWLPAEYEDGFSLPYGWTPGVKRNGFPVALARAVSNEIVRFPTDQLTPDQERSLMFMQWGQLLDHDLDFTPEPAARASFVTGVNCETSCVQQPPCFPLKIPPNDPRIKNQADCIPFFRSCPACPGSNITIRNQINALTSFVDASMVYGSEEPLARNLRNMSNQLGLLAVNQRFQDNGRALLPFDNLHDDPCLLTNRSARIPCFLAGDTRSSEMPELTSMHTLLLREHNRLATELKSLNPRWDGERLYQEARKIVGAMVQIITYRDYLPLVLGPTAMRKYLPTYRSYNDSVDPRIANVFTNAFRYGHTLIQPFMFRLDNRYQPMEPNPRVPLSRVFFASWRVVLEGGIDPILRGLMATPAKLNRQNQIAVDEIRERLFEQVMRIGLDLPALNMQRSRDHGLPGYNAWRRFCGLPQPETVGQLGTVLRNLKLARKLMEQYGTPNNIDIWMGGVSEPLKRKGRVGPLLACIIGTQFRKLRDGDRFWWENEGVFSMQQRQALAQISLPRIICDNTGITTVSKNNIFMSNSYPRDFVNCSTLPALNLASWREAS
In words: (§1) Binding affinity to MPO (unknown origin) assessed as dissociation constant by ITC analysis. Background: In ITC the heat of successive injections is recorded.

Data set [3] addresses T1, Myeloperoxidase (Homo sapiens). In words: Binding affinity to MPO (unknown origin) assessed as change in enthalpy by ITC analysis.
Data set [4] relates to HT-22. Briefly: Cytotoxicity against mouse HT-22 cells assessed as cell viability at 50 uM incubated for 24 hrs by CCK-8 method. The class given is functional, cell-based.
For a further data set, the target named is T2, Myeloperoxidase (Homo sapiens, UniProt P05164).
T2 sequence (P05164 whole entry): T1 sequence (whole entry)
Described as §1.

In data set [5] the target is T1, Myeloperoxidase (Homo sapiens). In words: Induction of thermal stabilization of MPO (unknown origin) at 10 uM by CESTA analysis.
Data set [6] is described as follows: Drug uptake in human HeLa cells at 10 uM measured after 30 mins by Hoechst staining based confocal microscopic analysis. Format: ADME, cell-based. Conditions: 0.5 h.
The nature of data set [7]: Drug uptake in human HeLa cells assessed as increase in red fluorescence at 10 uM measured after 30 mins in presence of HClO by Hoechst staining based confocal microscopic analysis. Conditions: 0.5 h. Format: ADME, cell-based.
A short description of data set [8]: Drug uptake in human HeLa cells assessed as increase in red fluorescence at 10 uM measured within 40 mins in presence of HClO by Hoechst staining based confocal microscopic analysis. Format: ADME, cell-based.
Data set [9] can be described thus: Drug uptake in IFN-gamma treated human Neutrophil cells assessed as increase in fluorescence at 10 uM measured after 30 mins by Hoechst staining based confocal microscopic analysis. Conditions: 0.5 h. Format: ADME, cell-based.
Data set [10] relates to Mus musculus. In words: Protection against photo thrombotic stroke induced cerebral ischemia in male C57BL/6 mouse model assessed as MPO secretion in brain at 1 mg/kg, iv by Ly6G staining based confocal microscopy based analysis. The class given is functional, organism-based.
Data set [11] concerns the target T1, Myeloperoxidase (Homo sapiens). Briefly: Inhibition of MPO in HEK293T cells harbouring MPO-ZsGreen assessed as decrease in red fluorescence intensity at 10 uM preincubated with MPO-IN-28 for 4 hrs followed by compound addition and measured after 30 mins by fluorescence imaging based confocal microscopy analysis. Format: cell-based.
Data set [12] shares this target. Briefly: Inhibition of MPO in HEK293T cells harbouring MPO-ZsGreen assessed as decrease in red fluorescence intensity at 10 uM preincubated with AZD5904 for 4 hrs followed by compound addition and measured after 30 mins by fluorescence imaging based confocal microscopy analysis. The class given is cell-based.
Data set [13] shares this target. In words: Inhibition of MPO in human HL-60 cells harbouring MPO-ZsGreen assessed as decrease in red fluorescence intensity at 10 uM preincubated with MPO-IN-28 for 2 hrs followed by compound addition and measured after 30 mins by fluorescence imaging based confocal microscopy analysis. Format: cell-based.
For data set [14] the target is unchanged. In words: Inhibition of MPO in human HL-60 cells harbouring MPO-ZsGreen assessed as decrease in red fluorescence intensity at 10 uM preincubated with AZD5904 for 2 hrs followed by compound addition and measured after 30 mins by fluorescence imaging based confocal microscopy analysis. Format: cell-based.
Data set [15] has the same target. Briefly: Inhibition of MPO in HEK293T cells harbouring MPO-ZsGreen assessed as decrease in red fluorescence intensity at 10 uM preincubated with ZL-006 for 4 hrs followed by compound addition and measured after 30 mins by fluorescence imaging based confocal microscopy analysis. Format: cell-based.
For data set [16] the target is unchanged. In words: Inhibition of MPO in HEK293T cells harbouring MPO-ZsGreen assessed as decrease in red fluorescence intensity at 10 uM preincubated with ZL-002 for 4 hrs followed by compound addition and measured after 30 mins by fluorescence imaging based confocal microscopy analysis. Format: cell-based.
Data set [17] has the same target. In words: Inhibition of MPO in HEK293T cells harbouring MPO-ZsGreen assessed as decrease in red fluorescence intensity at 10 uM preincubated with edaravone for 4 hrs followed by compound addition and measured after 30 mins by fluorescence imaging based confocal microscopy analysis. The class given is cell-based.
Data set [18] concerns Brain. In words: Ex vivo protection against photo thrombotic stroke induced cerebral ischemia in male C57BL/6 mouse brain assessed as decrease in MPO induced HClO fluorescence signal in cortex at 10 uM preincubated with MPO-IN-28 for 1 hr followed by compound addition and measured after 30 mins by fluorescence imaging based confocal microscopy analysis. The class given is functional, tissue-based.

The test system of data set [19] is Brain. In words: Ex vivo protection against photo thrombotic stroke induced cerebral ischemia in male C57BL/6 mouse brain assessed as decrease in MPO induced HClO fluorescence signal in cortex at 10 uM preincubated with AZD5904 for 1 hr followed by compound addition and measured after 30 mins by fluorescence imaging based confocal microscopy analysis. Format: functional, tissue-based.

The species named for data set [20] is Mus musculus. In words: Protection against photo thrombotic stroke induced cerebral ischemia in male C57BL/6 mouse model assessed as decrease in fluorescence response in brain cortex preincubated with AZD5904 for 18 consecutive days followed by induction of stoke for 3 days and measured after 7 days by Ly6G staining based confocal microscopy based analysis. The class given is functional, organism-based. The note with it: time 7.0 day.

For data set [21], the species on record is Mus musculus. Briefly: Protection against photo thrombotic stroke induced cerebral ischemic male C57 mouse model assessed as reduction in number neutrophils measured after 7 days. The class given is functional, organism-based. Conditions: time 7.0 day.
For data set [22], the species on record is Mus musculus. Briefly: Protection against photo thrombotic stroke induced cerebral ischemic male C57 mouse model assessed as improvement in sensory motor dysfunction measured after 5 days by rotarod test. The class given is functional, organism-based. Conditions: time 5.0 day. Background: Falling from the rotarod earlier than controls is read as motor impairment.

For data set [23], the species on record is Mus musculus. In words: Protection against photo thrombotic stroke induced cerebral ischemic male C57 mouse model assessed as improvement in sensory motor dysfunction measured after 5 days by foot fault test. The class given is functional, organism-based. Conditions: time 5.0 day.
Data set [24] has as its system Mus musculus. Briefly: Protection against photo thrombotic stroke induced cerebral ischemia in male C57BL/6 mouse model assessed as inhibition of MPO activity in brain at 40 mg/kg, IG preincubated for 18 consecutive days followed by induction of stoke for 3 days and measured after 7 days. The class given is functional, organism-based. Conditions: time 28.0 day.
Data set [25] deals with Mus musculus. In words: Protection against photo thrombotic stroke induced cerebral ischemia in male C57BL/6 mouse model assessed as decrease in infarct size at 40 mg/kg, IG preincubated for 18 consecutive days followed by induction of stoke for 3 days and measured after 5 days by TTC staining based analysis. The class given is functional, organism-based. Conditions: time 26.0 day.

The test system of data set [26] is Mus musculus. In words: Protection against photo thrombotic stroke induced cerebral ischemia in male C57BL/6 mouse model assessed as effect on body weight at 40 mg/kg, IG preincubated for 18 consecutive days followed by induction of stoke for 3 days and measured after 5 days by TTC staining based analysis. Format: functional, organism-based. Conditions: time 26.0 day.

Data set [27] has as its system Mus musculus. In words: Protection against photo thrombotic stroke induced cerebral ischemia in male C57BL/6 mouse model assessed as amelioration of foot fault in forelimb at 40 mg/kg, IG preincubated for 18 consecutive days followed by induction of stoke for 3 days and measured after 5 to 15 days by foot fault test. Format: functional, organism-based. The note with it: time 26-36 day.

The test system of data set [28] is Mus musculus. Briefly: Protection against photo thrombotic stroke induced cerebral ischemia in male C57BL/6 mouse model assessed as amelioration of foot fault in hindlimb at 40 mg/kg, IG preincubated for 18 consecutive days followed by induction of stoke for 3 days and measured after 5 to 15 days by foot fault test. Format: functional, organism-based. Conditions: time 26-36 day.

Data set [29] deals with Mus musculus. In words: Protection against photo thrombotic stroke induced cerebral ischemia in male C57BL/6 mouse model assessed as decrease in asymmetry index at 40 mg/kg, IG preincubated for 18 consecutive days followed by induction of stoke for 3 days and measured after 10 to 15 days by foot fault test. Format: functional, organism-based. Conditions: time 31-36 day.

Activity calls are given as the source filed them. The calls are words filed in the database; no cut-off is given here.

`CN(C)c1ccc2c(c1)[Si](C)(C)c1cc(N(C)C)ccc1C21c2ccccc2C(=O)N1NC(=S)NCCc1c[nH]c2ccc(O)cc12`: the result in the data set on HT-22 [1] was Active.

As for `CCNc1cc2[o+]c3cc(NCC)c(C)cc3c(-c3ccccc3C(=O)OCC)c2cc1C`, the result in [2] and in [3] was inactive.

What is called Kd is the equilibrium constant for the complex coming apart. Consider `COc1ccc2[nH]cc(CCNC(=S)NN3C(=O)c4ccccc4C34c3ccc(N(C)C)cc3[Si](C)(C)c3cc(N(C)C)ccc34)c2c1`, for which the Activity result in the data set on HT-22 [4] was “Active; Compound Showed Little Toxicity”. Moreover, the Kd on Myeloperoxidase is 11.6 µM. The deltaH in data set [3] was 2.39 kcal/mol. The result (in data set [5]; in the data set with Mus musculus [10]; in the data set on Brain [18]; with Brain [19]; in the data set listed under Mus musculus [20]) was Active. Further, the Drug uptake entry in [6] is “Not_active”; in data set [7] it was “Active”; in data set [8], “Not_active”; in data set [9], “Active”. In addition, the inhibition result in data set [11], in [12], in [13], in data set [14] and in data set [15] was “Active” each time. Moreover, the inhibition entry in data set [16] and in data set [17] was “inactive” throughout.

Take `CC1=NN(c2ccccc2)C(=O)C1`: the result in the data set listed under Mus musculus [21], in the data set listed under Mus musculus [22] and in the data set filed under Mus musculus [23] was inactive.

With `O=c1[nH]c(=S)n(C[C@H]2CCCO2)c2nc[nH]c12`, the outcome in the data set with Mus musculus [24], with Mus musculus [25], with Mus musculus [26], with Mus musculus [27], with Mus musculus [28] and with Mus musculus [29] was Active.

(Values after ChEMBL document CHEMBL6134810, “Novel Hypochlorous Acid-Activated Near-Infrared Probe Monitors the Dynamic Changes of Myeloperoxidase Activity in Ischemic Brain” (J Med Chem, 2025).)
